For one series, the system named is p38-δ. Conditions: tested at 1 μM; cited from earlier work.
The next series has as its system TRKB. Particulars: tested at 1 μM; cited from earlier work.
A further series relates to parasite. Conditions: cited from earlier work.
Series [1] can be described thus: Aqueous solubility by solution turbidity. It is filed as physicochemical.
The next series deals with BPTF. Conditions: cited from earlier work.
A further series deals with TRKC (Homo sapiens, UniProt Q16288). Particulars: tested at 1 μM; cited from earlier work.
The target of a further series is T1, CDKL2 (Homo sapiens, UniProt Q92772).
T1 sequence (Q92772 1-493): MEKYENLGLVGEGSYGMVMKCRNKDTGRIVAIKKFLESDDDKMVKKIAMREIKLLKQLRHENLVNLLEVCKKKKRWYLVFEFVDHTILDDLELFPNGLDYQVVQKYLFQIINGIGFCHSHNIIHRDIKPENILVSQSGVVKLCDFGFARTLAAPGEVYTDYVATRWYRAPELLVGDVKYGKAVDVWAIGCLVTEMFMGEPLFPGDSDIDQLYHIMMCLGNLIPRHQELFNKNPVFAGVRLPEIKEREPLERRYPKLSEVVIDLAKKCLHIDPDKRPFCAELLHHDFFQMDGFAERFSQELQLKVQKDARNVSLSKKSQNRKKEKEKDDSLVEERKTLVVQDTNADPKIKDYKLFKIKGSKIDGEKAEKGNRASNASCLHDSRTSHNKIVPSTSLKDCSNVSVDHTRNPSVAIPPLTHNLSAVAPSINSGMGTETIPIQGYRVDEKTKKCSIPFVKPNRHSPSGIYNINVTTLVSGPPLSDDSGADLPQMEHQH
Particulars: tested at 1 μM; cited from earlier work.

The next series concerns HPK1. Conditions: tested at 1 μM; cited from earlier work.
The next series concerns CDK11. Particulars: tested at 1 μM; cited from earlier work.
The next series concerns the target BPTF bromodomain (Homo sapiens, UniProt Q12830). Put plainly: PrOF NMR binding to 5FW-labeled BPTF bromodomain. Particulars: 5FW BPTF bromodomain, 19F resonance of W2824.
In a further series the test system is breast epithelial cells. Conditions: cited from earlier work.

The structures appear in SMILES notation.

Sequence of TRKC (Q16288 32-839): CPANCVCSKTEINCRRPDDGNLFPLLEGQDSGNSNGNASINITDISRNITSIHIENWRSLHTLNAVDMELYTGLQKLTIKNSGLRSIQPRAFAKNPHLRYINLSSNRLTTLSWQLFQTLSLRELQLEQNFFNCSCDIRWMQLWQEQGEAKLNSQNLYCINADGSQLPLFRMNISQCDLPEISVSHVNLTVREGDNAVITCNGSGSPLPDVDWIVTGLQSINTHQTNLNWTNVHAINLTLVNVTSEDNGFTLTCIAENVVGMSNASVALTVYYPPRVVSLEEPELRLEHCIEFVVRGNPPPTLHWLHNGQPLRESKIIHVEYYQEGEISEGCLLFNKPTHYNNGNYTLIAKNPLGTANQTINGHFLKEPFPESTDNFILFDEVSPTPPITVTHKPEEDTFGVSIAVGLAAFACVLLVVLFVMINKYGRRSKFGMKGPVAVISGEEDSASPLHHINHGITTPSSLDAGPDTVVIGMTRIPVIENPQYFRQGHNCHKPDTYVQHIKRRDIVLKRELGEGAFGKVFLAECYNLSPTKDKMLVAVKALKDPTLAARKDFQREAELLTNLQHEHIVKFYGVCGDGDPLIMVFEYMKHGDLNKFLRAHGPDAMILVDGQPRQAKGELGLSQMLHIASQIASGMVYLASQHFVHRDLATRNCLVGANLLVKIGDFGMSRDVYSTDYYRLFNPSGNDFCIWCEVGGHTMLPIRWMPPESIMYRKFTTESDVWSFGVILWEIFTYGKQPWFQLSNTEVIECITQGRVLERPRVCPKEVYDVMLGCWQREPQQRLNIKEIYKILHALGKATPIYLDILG

Take `COC(=O)c1cccc(NC(=O)NC2CCN(c3ccnc(Nc4ccc(F)cc4)n3)C2)c1` (racemic) [rac-1]: the “inhibition of p38-δ” value with p38-δ is recorded as 51–68%. Besides, the “inhibition of TRKB” value in the series on TRKB was 51–68%. Also, in the series with parasite, the antimalarial activity entry is given as “has shown antimalarial activity”. Besides, the “solubility (concentration above which solution turbidity increases)” value in series [1] is ~ 100 μM. In addition, the “transcription in a BPTF-specific reporter assay” value with BPTF is on record as “reducing transcription”. For the same compound, at TRKC, the “inhibition of TRKC” value is recorded as 82%. The “inhibition of CDKL2” value at CDKL2 is given as 82%. Also, the “inhibition of HPK1” value in the series with HPK1 is listed as 51–68%. Moreover, the “inhibition of CDK11” value in the series with CDK11 is given as 51–68%. The “PrOF NMR binding behaviour of the 5FW BPTF resonance” value on BPTF bromodomain was “significant broadening of the fluorine resonance”. In addition, the “effects in breast epithelial cells” value in the series with breast epithelial cells was “decreased c-MYC regulated genes, c-MYC chromatin occupancy, and led to G1 cell cycle arrest”.

Values taken from publication PMC6374164 (Organic & biomolecular chemistry, 2019).
